Our source for the ED50, IC50 and LD50 values is ChEMBL document CHEMBL1127095, “Pharmacology of (2R, 4R, 5S)-2-amino-4,5-(1,2-cyclohexyl)-7-phosphonoheptanoic acid (NPC 17742); a selective, systemically active, competitive NMDA antagonist” (Bioorg Med Chem Lett, 1993).

Series [1] deals with Mus musculus. Put plainly: Tested for the ability to inhibit the NMDA induced (250mg/Kg, intraperitoneal) seizures in male CF-1 mice when given 30 min prior to NMDA (intraperitoneal). The format is functional. As to conditions: ip.
Series [2] concerns Mus musculus. Put plainly: Tested for the ability to inhibit the NMDA induced (250mg/Kg, intraperitoneally) seizures in male CF-1 mice given 15 min prior to NMDA (intracerebroventricularly). The format is functional.
The target in the next series is Glutamate NMDA receptor. Put plainly: Tested for the ability to inhibit the specific binding of [3H]-CGS- 19755 to NMDA recognition sites on rat brain membranes. Format: cell membranes, Membrane.
Series [3] has as its system Rattus norvegicus. Put plainly: Tested for the paradigm of drug-discrimination assay in rats by intraperitoneal administration. Format: functional. Particulars: ip.
The test system of series [4] is Rattus norvegicus. Put plainly: Tested for the paradigm of drug-discrimination assay in rats by intraperitoneal administration. Particulars: ip. The format is functional.
The subject of series [5] is Mus musculus. Put plainly: Tested for the ability to inhibit the […] induced seizures (ip administration). Format: functional.
The species entered for series [6] is Mus musculus. Put plainly: Tested for the ability to inhibit the maximal electroshock induced seizures in mice. Format: functional. (The maximal electroshock test induces tonic seizures with an electrical stimulus.)
The species entered for series [7] is Mus musculus. Put plainly: Tested for the ability to inhibit the pentylenetetrazole seizures in mice. The format is functional.
Series [8] has as its system Rattus norvegicus. Put plainly: Tested for the paradigm of drug-discrimination assay (NPC 17742 (4 mg/Kg; i.p.) from saline) in rat by intraperitoneal administration. Particulars: ip. The format is functional.
Series [9] relates to Rattus norvegicus. Put plainly: Tested for the paradigm of drug-discrimination assay in rat by intraperitoneal administration. As to conditions: ip. The format is functional.
Series [10] in a line: Tested for the lethal dose by intraperitoneal administration. The format is ADME. As to conditions: mouse, ip.
Series [11] concerns Rattus norvegicus. Put plainly: Tested for the paradigm of drug-discrimination assay (NPC 17742 (4 mg/Kg) from saline) in rats by intraperitoneal administration. The format is functional. Particulars: ip.
The next series deals with Rodentia sp. Put plainly: Tested for the ability to inhibit the cocaine-induced seizures in rodents. The format is functional.

For `N[C@@H](C[C@@H]1CCCC[C@@H]1CCP(=O)(O)O)C(=O)O`, the figures for the ED50 in the series on Mus musculus [1] and in the series on Mus musculus [2] were 32 mg/kg and 8.5 nmol, respectively. In addition, at Glutamate NMDA receptor, the IC50 is 2400 nM.
As to `O=C(O)[C@@H]1C[C@H](CP(=O)(O)O)CCN1` (single isomer, unassigned) [SELFOTEL], the ED50 in the series with Mus musculus [1] was 2.6 mg/kg; in the series with Mus musculus [2], 0.19 nmol; in the series on Rattus norvegicus [3] it was 2.3 mg/kg. Besides, the IC50 on Glutamate NMDA receptor came to 87 nM.
With `O=C(O)[C@H]1CN(C/C=C/P(=O)(O)O)CCN1` [MIDAFOTEL], in the series with Rattus norvegicus [4], the ED50 amounted to 0.8 mg/kg.
Turning to `N[C@H](C[C@H]1CCCCC1CCP(=O)(O)O)C(=O)O` (single isomer, unassigned), the ED50 in the series with Mus musculus [5] was 4.5 mg/kg; in the series on Mus musculus [1], 1.05 mg/kg; with Mus musculus [2], 0.28 nmol; in the series listed under Mus musculus [6] it was 13 mg/kg; in the series filed under Mus musculus [7], 4.5 mg/kg; in the series on Rattus norvegicus [8], 1.9 mg/kg. Moreover, in the series with Rattus norvegicus [9], the ED50 is 2.1 mg/kg. The compound also gave an IC50 on Glutamate NMDA receptor of 270 nM. In series [10], this compound yielded an LD50 above 1000 mg/kg.
For `NC(C[C@@H]1CCCC[C@H]1CCP(=O)(O)O)C(=O)O` (stereo in doubt; (-)), the ED50 in the series on Mus musculus [1] was above 100 mg/kg; in the series with Mus musculus [2], 20 nmol. The same compound showed a concentration for half-maximal inhibition (IC50) at Glutamate NMDA receptor of 4050 nM.
`N[C@@H](C[C@H]1CCCC[C@H]1CCP(=O)(O)O)C(=O)O`: the figures for the ED50 in the series on Mus musculus [1] and in the series on Mus musculus [2] were 40 mg/kg and 44.6 nmol, respectively. Besides, at Glutamate NMDA receptor, the IC50 came to 2600 nM.
`O=C(O)C1CN(CCCP(=O)(O)O)CCN1` (racemic): the ED50 in the series on Mus musculus [1] amounted to 2.2 mg/kg; in the series with Mus musculus [2] it was 1.2 nmol. On Glutamate NMDA receptor, this compound returned a 50% inhibitory concentration (IC50) of 190 nM.
As to `N[C@H](C[C@@H]1CCCC[C@@H]1CCP(=O)(O)O)C(=O)O`, the ED50 was 33 mg/kg in the series with Mus musculus [1] and 8.5 nmol with Mus musculus [2]. In addition, the 50% inhibitory concentration (IC50) on Glutamate NMDA receptor came to 5600 nM.
For `NC(CC1CCCCC1CCP(=O)(O)O)C(=O)O` (stereo not given), the ED50 in the series with Rattus norvegicus [11] came to 8.9 mg/kg; in the series on Rattus norvegicus [4], 18.1 mg/kg.
For the compound `CC(=CC(N)C(=O)O)CP(=O)(O)O` (stereo not given) [CGP-37849], the ED50 turned out to be 0.8 mg/kg in the series with Rattus norvegicus [4] and 0.1 mg/kg in the series on Rodentia sp..
In the series with Mus musculus [2], `NC(C[C@@H]1CCCC[C@H]1CCP(=O)(O)O)C(=O)O` (stereo in doubt; (+)) displayed an ED50 of 49 nmol. For the same compound, on Glutamate NMDA receptor, the IC50 stood at 28000 nM.

For orientation: IC50 means the midpoint of a concentration-inhibition curve. Low values mean higher potency, high ones lower potency. In general, LD50 refers to the dose at which mortality reaches 50%. Low values mean greater toxicity, high ones lower toxicity.
